Assay results reported in patent US20200268728A1, “DRUG TARGETING CANCER STEM CELL” (Sumitomo Dainippon Pharma Co., Ltd., priority 2016, published 2020).

Columns and labels:
Test in all cases: Sphere-forming ability of cultured cancer cell lines (Test Example 10)
Assay type in all cases: cell-based
LoVo = settings: Homo sapiens, 96 h; LoVo colon cancer cell line, 4 days
Description: (§1) The colon cancer cell lines SW480, DLD1, HCT15, HT29, SW948, LS174T, LS411N, SW620, LoVo, HCT116, Colo205, and Hs698T, the pancreatic cancer cell lines MiaPaca2, HPAFII, Capan2, and Panc1, the head and neck cancer cell line FaDu, the breast cancer cell lines HCC1954 and T47D, the bladder cancer cell line SW780, the liver cancer cell line HepG2, the neuroblastoma cell lines U87MG and U251, the lung cancer cell lines H460, H1437, and A549, the prostate cancer cell lines DU145 and PC3, the soft tissue tumor cell line HT1080, the testicular cancer cell line NTERA2, and the ovarian cancer cell line SKOV3 was suspended in the sphere formation medium (DMEM-F12 medium of Test Example 3 was used), and seeded in a 384-well plate with Ultra-Low Attachment surface (Corning) in an amount of 5×10^3-10×10^3 cells/well. The compound of Example 24 was then added into each well to adjust the final concentration to 10-10000 nmol/L. The plate was cultured at 37° C. and 5% carbon dioxide in an incubator for 4 days. After the culture, CellTiterGlo (Promega) was added into all of the wells, and the plate was allowed to stand at room temperature for 10 minutes to measure the intensity of luminescence of each well. The concentrations of each test compound for 50% inhibition of cell proliferation to the cell lines (Sphere IC50 value; μmol/L) was calculated from the measured intensity of luminescence. When each gene mutation in Table is reported, the mutation is represented by “+” (gene mutation information is cited from the ATCC website (https://www.atcc.org/en/Products/Cells_and_Microorganisms/Cell_Lines/Cell_lines_by_genetic_mutation.aspx), Cancer Cell Line Encyclopedia (https://portals.broadinstitute.org/ccle_legacy/home), Proc. Natl. Acad. Sci. USA 94 (1997) 10330-10334).

T-47D = settings: Homo sapiens, T47D, 96 h; T-47D breast cancer cell line, 4 days
Description: as §1

A549 = settings: Homo sapiens, 96 h; A549 lung cancer cell line, 4 days
Description: as §1

Hep G2 = settings: Homo sapiens, HepG2, 96 h; Hep G2 liver cancer cell line, 4 days
Description: as §1

HCT 116 = settings: Homo sapiens, 96 h; HCT 116 colon cancer cell line, 4 days
Description: as §1

SW620 = settings: Homo sapiens, SW-620, 96 h; SW620 colon cancer cell line, 4 days
Description: as §1

SW948 = settings: Homo sapiens, 96 h; SW948 colon cancer cell line, 4 days
Description: as §1

SW 780 = settings: Homo sapiens, SW780, 96 h; SW 780 bladder cancer cell line, 4 days
Description: as §1

FaDu = settings: Homo sapiens, 96 h; FaDu head and neck cancer cell line, 4 days
Description: as §1

LS411N = settings: Homo sapiens, LS-411N, 96 h; LS411N colon cancer cell line, 4 days
Description: as §1

U-87 MG = settings: Homo sapiens, 96 h; U-87 MG glioblastoma cell line, 4 days
Description: as §1

LS 174T = settings: Homo sapiens, LS174T, 96 h; LS 174T colon cancer cell line, 4 days
Description: as §1

- IC50 (LoVo): 0.028 µM
- IC50 (T-47D): 0.046 µM
- IC50 (A549): > 10 µM
- IC50 (Hep G2): 0.072 µM
- IC50 (HCT 116): 0.091 µM
- IC50 (SW620): 0.027 µM
- IC50 (SW948): 0.009 µM
- IC50 (SW 780): 0.056 µM
- IC50 (FaDu): 0.009 µM
- IC50 (LS411N): 0.019 µM
- IC50 (U-87 MG): 0.089 µM
- IC50 (LS 174T): 0.015 µM
Compound: O=C(Nc1cn(Cc2cc(F)c(F)c(F)c2)cn1)c1cnc(CO)c(C(F)F)c1 [Example 24, 5-(difluoromethyl)-6-(hydroxymethyl)-N-[1-(3,4,5-trifluorobenzyl)-1H-imidazol-4-yl]nicotinamide]
